Experiments:
[1] = system: human endometrial cancer cell strain AN3CA; experiment: Cell growth inhibition test (MTT), AN3CA; assay type: cell-based; settings: AN3-CA, 72 h, 3 days culture, read-out: concentration exhibiting anti-cell effect (GI50)
Procedure, shortened: (§1)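 Seed 5000/1000/5000 cells per well (AN3CA/IGROV1/HT29); add compound next day; culture 3 d, 37° C, 5% CO2; MTT 4 h, DMSO, A540. T/C % vs pre-dose baseline; GI50 from bracketing concentrations.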

[2] = system: human ovary cancer cell strain IGROV1; experiment: Cell growth inhibition test (MTT), IGROV1; assay type: cell-based; settings: IGROV-1, 72 h, IGROV1, 3 days culture, read-out: concentration exhibiting anti-cell effect (GI50)
Procedure, shortened: as §1

[3] = system: human colon cancer cell strain HT29; experiment: Cell growth inhibition test (MTT), HT29; assay type: cell-based; settings: HT-29, 72 h, HT29, 3 days culture, read-out: concentration exhibiting anti-cell effect (GI50)
Procedure, shortened: as §1

[4] = biological target: T1, human mTOR (His-tagged mTOR (1362C)) (Homo sapiens, UniProt P42345); experiment: mTOR kinase activity inhibition assay; assay type: biochemical; settings: HTRF, read-out: IC50 against mTOR
T1 construct: the 1362 to 2549 amino acid portion on the C terminus side of human mTOR; His tag (N); made in house
T1 sequence (P42345 1362-2549): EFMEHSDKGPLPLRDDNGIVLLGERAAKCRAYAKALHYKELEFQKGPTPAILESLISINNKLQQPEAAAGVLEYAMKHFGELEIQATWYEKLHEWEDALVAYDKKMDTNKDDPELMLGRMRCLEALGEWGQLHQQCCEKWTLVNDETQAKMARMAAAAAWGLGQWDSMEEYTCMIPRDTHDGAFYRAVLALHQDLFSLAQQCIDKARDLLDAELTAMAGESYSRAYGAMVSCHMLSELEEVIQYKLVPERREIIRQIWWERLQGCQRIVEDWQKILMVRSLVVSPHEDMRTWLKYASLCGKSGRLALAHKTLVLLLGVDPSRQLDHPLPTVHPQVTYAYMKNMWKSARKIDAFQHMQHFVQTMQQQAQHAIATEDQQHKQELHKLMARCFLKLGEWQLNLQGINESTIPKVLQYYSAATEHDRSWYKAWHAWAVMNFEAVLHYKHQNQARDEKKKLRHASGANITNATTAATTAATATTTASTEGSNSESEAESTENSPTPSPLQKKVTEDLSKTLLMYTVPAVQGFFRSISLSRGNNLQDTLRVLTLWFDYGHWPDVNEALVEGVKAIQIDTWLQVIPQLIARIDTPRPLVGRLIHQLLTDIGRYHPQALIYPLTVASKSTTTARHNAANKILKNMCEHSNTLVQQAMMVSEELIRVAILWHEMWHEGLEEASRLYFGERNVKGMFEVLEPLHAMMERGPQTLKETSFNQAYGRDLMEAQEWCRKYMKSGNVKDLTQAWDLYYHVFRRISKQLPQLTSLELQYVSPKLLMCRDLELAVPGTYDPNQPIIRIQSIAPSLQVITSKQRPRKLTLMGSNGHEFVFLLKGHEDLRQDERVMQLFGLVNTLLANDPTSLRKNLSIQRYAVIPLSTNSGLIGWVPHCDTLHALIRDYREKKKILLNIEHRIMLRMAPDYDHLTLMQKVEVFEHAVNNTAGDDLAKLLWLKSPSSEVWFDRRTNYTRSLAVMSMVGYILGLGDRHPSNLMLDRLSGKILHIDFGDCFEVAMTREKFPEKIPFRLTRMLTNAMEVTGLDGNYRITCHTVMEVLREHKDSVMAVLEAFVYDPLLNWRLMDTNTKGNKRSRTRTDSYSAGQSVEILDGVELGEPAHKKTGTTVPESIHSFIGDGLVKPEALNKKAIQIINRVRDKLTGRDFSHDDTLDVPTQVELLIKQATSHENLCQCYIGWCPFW
Procedure, shortened: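 Crude His-tagged mTOR (aa 1362–2549) from stable HEK293 cells, with 8 μg/ml biotinylated peptide in 50 mM HEPES pH 7.5, 20 mM MnCl2; compound diluted in 20 μM ATP solution, reaction 3 h at room temperature. Phospho-peptide detected by HTRF (anti-phospho-S6K Thr389 cryptate/streptavidin-XL665, overnight at 4°C), 665/620 nm ratio. IC50 derived from curve fit of % inhibition.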

Structure (SMILES) | GI50 [1] [µM] | GI50 [2] [µM] | GI50 [3] [µM] | IC50 [4] [µM]
CC(=O)N1CCN(c2nc3c(N4CCOCC4)nc(-c4cnc(N)nc4)nc3n2CC2CC2)CC1 [Example 10, 5-[8-(4-Acetylpiperazin-1-yl)-9-(cyclopropylmethyl)-6-morpholin-4-yl-9H-purin-2-yl]pyrimidin-2-amine] | ≤ 5 | ≤ 5 | ≤ 5 | 0.01 to 0.03
C[C@@H]1CN(c2nc3c(N4CCOCC4)nc(-c4cnc(N)nc4)nc3n2CC(F)(F)F)CCN1S(C)(=O)=O [Example 61, 5-{8-[(3R)-3-Methyl-4-(methylsulfonyl)piperazin-1-yl]-6-morpholin-4-yl-9-(2,2,2-trifluoroethyl)-9H-purin-2-yl}pyrimidin-2-amine] | ≤ 5 | ≤ 5 | ≤ 5 | 0.01 to 0.03
CC(=O)C(=O)N1CCN(c2nc3c(N4CCOCC4)nc(-c4cnc(N)nc4)nc3n2CC(F)(F)F)CC1 [Example 65, 1-{4-[2-(2-Aminopyrimidin-5-yl)-6-morpholin-4-yl-9-(2,2,2-trifluoroethyl)-9H-purin-8-yl]piperazin-1-yl}-1-oxoacetone] | ≤ 5 | ≤ 5 | ≤ 5 | < 0.01
Nc1ncc(-c2nc(N3CCOCC3)c3nc(N4CCN(C(=O)CO)CC4)n(CC(F)(F)F)c3n2)cn1 [Example 67, 2-{4-[2-(2-Aminopyrimidin-5-yl)-6-morpholin-4-yl-9-(2,2,2-trifluoroethyl)-9H-purin-8-yl]piperazin-1-yl}-2-oxoethanol] | ≤ 5 | ≤ 5 | ≤ 5 | < 0.01
CNc1ncc(-c2nc(N3CCOCC3)c3nc(N4CCN(S(C)(=O)=O)CC4)n(CC(F)(F)F)c3n2)cn1 [Example 11, N-Methyl-5-{8-[4-(methylsulfonyl)piperazin-1-yl]-6-morpholin-4-yl-9-(2,2,2-trifluoroethyl)-9H-purin-2-yl}pyrimidin-2-amine] | ≤ 5 | ≤ 5 | ≤ 5 | < 0.01
C[C@H](O)CC(=O)N1CCN(c2nc3c(N4CCOCC4)nc(-c4cnc(N)nc4)nc3n2CC(F)(F)F)CC1 [Example 69, (2S)-4-{4-[2-(2-Aminopyrimidin-5-yl)-6-morpholin-4-yl-9-(2,2,2-trifluoroethyl)-9H-purin-8-yl]piperazin-1-yl}-4-oxobutan-2-ol] | ≤ 5 | ≤ 5 | ≤ 5 | < 0.01
CC(C)Cn1c(N2CCN(S(C)(=O)=O)CC2)nc2c(N3CCOCC3)nc(-c3cnc(N)nc3)nc21 [Example 1, 5-{9-Isobutyl-8-[4-(methylsulfonyl)piperazin-1-yl]-6-morpholin-4-yl-9H-purin-2-yl}pyrimidin-2-amine] | ≤ 5 | ≤ 5 | ≤ 5 | 0.01 to 0.03
CN(C)C(=O)C(=O)N1CCN(c2nc3c(N4CCOCC4)nc(-c4cnc(N)nc4)nc3n2CC(F)(F)F)CC1 [Example 66, 2-{4-[2-(2-Aminopyrimidin-5-yl)-6-morpholin-4-yl-9-(2,2,2-trifluoroethyl)-9H-purin-8-yl]piperazin-1-yl}-N,N-dimethyl-2-oxoacetamide] | ≤ 5 | ≤ 5 | ≤ 5 | < 0.01
CC(=O)N1CCN(c2nc3c(N4CCOCC4)nc(-c4cnc(N)nc4)nc3n2CC(F)(F)F)C[C@@H]1C [Example 63, 5-{8-[(3S)-4-Acetyl-3-methylpiperazin-1-yl]-6-morpholin-4-yl-9-(2,2,2-trifluoroethyl)-9H-purin-2-yl}pyrimidin-2-amine] | ≤ 5 | ≤ 5 | ≤ 5 | < 0.01
CS(=O)(=O)C1CCN(c2nc3c(N4CCOCC4)nc(-c4cnc(N)nc4)nc3n2CC(F)(F)F)CC1 [Example 57, 5-{8-[4-(Methylsulfonyl)piperidin-1-yl]-6-morpholin-4-yl-9-(2,2,2-trifluoroethyl)-9H-purin-2-yl}pyrimidin-2-amine] | ≤ 5 | ≤ 5 | ≤ 5 | < 0.01

More lines, now with the values ahead:

GI50 [1] [µM] | GI50 [2] [µM] | GI50 [3] [µM] | IC50 [4] [µM] | Structure (SMILES)
≤ 5 | ≤ 5 | ≤ 5 | < 0.01 | CC(=O)N1[C@H](C)CN(c2nc3c(N4CCOCC4)nc(-c4cnc(N)nc4)nc3n2CC(F)(F)F)C[C@@H]1C [Example 115, 5-[8-(4-Acetyl-cis-3,5-dimethylpiperazin-1-yl)-6-morpholin-4-yl-9-(2,2,2-trifluoroethyl)-9H-purin-2-yl]pyrimidin-2-amine]
≤ 5 | ≤ 5 | ≤ 5 | < 0.01 | Nc1ncc(-c2nc(N3CCOCC3)c3nc(N4CCN(C=O)CC4)n(CC(F)(F)F)c3n2)cn1 [Example 71, 4-[2-(2-Aminopyrimidin-5-yl)-6-morpholin-4-yl-9-(2,2,2-trifluoroethyl)-9H-purin-8-yl]piperazine-1-carboaldehyde]
≤ 5 | ≤ 5 | ≤ 5 | 0.01 to 0.03 | CC(C)Cn1c(N2CCN(C(=O)C[C@@H](C)O)CC2)nc2c(N3CCOCC3)nc(-c3cnc(N)nc3)nc21 [Example 81, (2R)-4-{4-[2-(2-Aminopyrimidin-5-yl)-9-isobutyl-6-morpholin-4-yl-9H-purin-8-yl]piperazin-1-yl}-4-oxobutan-2-ol]
≤ 5 | ≤ 5 | ≤ 5 | < 0.01 | C[C@@H]1CN(c2nc3c(N4CCOCC4)nc(-c4cnc(N)nc4)nc3n2CC(F)(F)F)C[C@H](C)N1C=O [Example 116, 4-[2-(2-Aminopyrimidin-5-yl)-6-morpholin-4-yl-9-(2,2,2-trifluoroethyl)-9H-purin-8-yl]-cis-2,6-dimethylpiperazine-1-carboaldehyde]
≤ 5 | ≤ 5 | ≤ 5 | < 0.01 | CC[C@H]1CN(c2nc3c(N4CCOCC4)nc(-c4cnc(N)nc4)nc3n2CC(F)(F)F)CCN1S(C)(=O)=O [Example 76, 5-{8-[(3S)-3-Ethyl-4-(methylsulfonyl)piperazin-1-yl]-6-morpholin-4-yl-9-(2,2,2-trifluoroethyl)-9H-purin-2-yl}pyrimidin-2-amine]
≤ 5 | ≤ 5 | ≤ 5 | < 0.01 | CC(=O)N1[C@H](C)CN(c2nc3c(N4CCOCC4)nc(-c4cnc(N)nc4)nc3n2CC2CC2)C[C@@H]1C [Example 98, 5-{8-[4-Acetyl-cis-3,5-dimethylpiperazin-1-yl]-9-(cyclopropylmethyl)-6-morpholin-4-yl-9H-purin-2-yl}pyrimidin-2-amine]
≤ 5 | ≤ 5 | ≤ 5 | < 0.01 | C[C@@H](O)C(=O)N1CCN(c2nc3c(N4CCOCC4)nc(-c4cnc(N)nc4)nc3n2CC2CC2)C[C@@H]1C [Example 113, (2R)-1-{(2S)-4-[2-(2-Aminopyrimidin-5-yl)-9-(cyclopropylmethyl)-6-morpholin-4-yl-9H-purin-8-yl]-2-methylpiperazin-1-yl}-1-oxopropan-2-ol]
≤ 5 | ≤ 5 | ≤ 5 | < 0.01 | C[C@@H]1CN(c2nc3c(N4CCOCC4)nc(-c4cnc(N)nc4)nc3n2CC(F)(F)F)CCN1C=O [Example 112, (2R)-4-[2-(2-Aminopyrimidin-5-yl)-6-morpholin-4-yl-9-(2,2,2-trifluoroethyl)-9H-purin-8-yl]-2-methylpiperazine-1-carboaldehyde]
≤ 5 | ≤ 5 | ≤ 5 | < 0.01 | CNc1ncc(-c2nc(N3CCOCC3)c3nc(N4CCN(S(C)(=O)=O)[C@@H](C)C4)n(CC(F)(F)F)c3n2)cn1 [Example 105, N-Methyl-5-{8-[(3S)-3-methyl-4-(methylsulfonyl)piperazin-1-yl]-6-morpholin-4-yl-9-(2,2,2-trifluoroethyl)-9H-purin-2-yl}pyrimidin-2-amine]
≤ 5 | ≤ 5 | ≤ 5 | < 0.01 | CC(C)Cn1c(N2CCN(C(=O)C[C@@H](C)O)[C@@H](C)C2)nc2c(N3CCOCC3)nc(-c3cnc(N)nc3)nc21 [Example 83, (2R)-4-{(2S)-4-[2-(2-Aminopyrimidin-5-yl)-9-isobutyl-6-morpholin-4-yl-9H-purin-8-yl]-2-methylpiperazin-1-yl}-4-oxobutan-2-ol]
≤ 5 | ≤ 5 | ≤ 5 | 0.01 to 0.03 | CC(C)Cn1c(N2CCN(C(=O)[C@@H](C)O)CC2)nc2c(N3CCOCC3)nc(-c3cnc(N)nc3)nc21 [Example 93]
≤ 5 | ≤ 5 | ≤ 5 | 0.03 to 0.1 | C[C@H](O)C(=O)N1CCN(c2nc3c(N4CCOCC4)nc(-c4cnc(N)nc4)nc3n2CC2CC2)CC1 [Example 88, (2S)-1-{4-[2-(2-Aminopyrimidin-5-yl)-9-(cyclopropylmethyl)-6-morpholin-4-yl-9H-purin-8-yl]piperazin-1-yl}-1-oxopropan-2-ol]
≤ 5 | ≤ 5 | ≤ 5 | < 0.01 | C[C@H]1COCCN1c1nc(-c2cnc(N)nc2)nc2c1nc(N1CCN(S(C)(=O)=O)CC1)n2CC(F)(F)F [Example 127, 5-{6-[(3S)-3-Methylmorpholin-4-yl]-8-[4-(methylsulfonyl)piperazin-1-yl]-9-(2,2,2-trifluoroethyl)-9H-purin-2-yl}pyrimidin-2-amine]
